In US20230263822A1, “MODULATION OF FACTOR 11 EXPRESSION” (Ionis Pharmaceuticals, Inc., priority 2008, published 2023):

Tests used:
human Factor 11 mRNA [1] = assay: Dose-dependent inhibition of human Factor 11 in HepG2 cells, lipofectin 9.375-75 nM (Example 4); assay type: cell-based; settings: for percent inhibition of Factor 11 at 9.375 nM / percent inhibition of Factor 11 at 18.75 nM / percent inhibition of Factor 11 at 37.5 nM / percent inhibition of Factor 11 at 75 nM: relative to untreated control cells
Outline: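 HepG2 cells transfected via lipofectin with antisense oligonucleotide at 9.375, 18.75, 37.5 or 75 nM for about 16 h. Factor 11 mRNA quantified by real-time RT-PCR (primer probe set RTS 2966) and normalized to total RNA (RIBOGREEN). Results expressed as percent inhibition versus untreated cells.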

[2] = Tolerability in CD1 mice: organ weight (Example 33); assay type: in vivo; settings: 50 mg/kg s.c. twice a week, vs PBS control, normalized to body weight
Method: Three days after the last dose was administered to all groups, the mice were sacrificed.

human Factor 11 mRNA [3] = assay: Antisense inhibition of human Factor 11 in HepG2 cells, electroporation, 8,000 nM (Example 30); assay type: cell-based; settings: electroporation, 8,000 nM antisense oligonucleotide
Outline: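 HepG2 cells electroporated with 8,000 nM 5-10-5, 5-8-5 or 6-8-6 MOE gapmers (phosphorothioate, 5-methylcytidine), ~24 h. Factor 11 mRNA quantified by qRT-PCR, normalised to RIBOGREEN total RNA. Reported as percent inhibition versus untreated cells.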

Substance	IC50 (human Factor 11 mRNA [1]) [nM]	percent inhibition of Factor 11 at 9.375 nM (human Factor 11 mRNA [1]) [%]	percent inhibition of Factor 11 at 18.75 nM (human Factor 11 mRNA [1]) [%]	percent inhibition of Factor 11 at 37.5 nM (human Factor 11 mRNA [1]) [%]	percent inhibition of Factor 11 at 75 nM (human Factor 11 mRNA [1]) [%]	Percent change in kidney weight ([2]; 2 weeks)	Percent change in liver weight ([2]; 2 weeks)	Percent change in spleen weight ([2]; 2 weeks) [%]	Percent change in kidney weight ([2]; 4 weeks) [%]	Percent change in liver weight ([2]; 4 weeks)	Percent change in spleen weight ([2]; 4 weeks)	Percent change in kidney weight ([2]; 6 weeks) [%]	Percent change in liver weight ([2]; 6 weeks)	Percent change in spleen weight ([2]; 6 weeks)	Percent inhibition of human Factor 11 mRNA levels (human Factor 11 mRNA [3]) [%]
416850 (antisense TGCACAGTTTCTGGCAGGCC; 5-10-5 gapmer, further chemistry not given here) [compound 416850]	29	4	30	67	84	−0%	+5%	−4	−12	+3%	+6%	−11	+6%	+48%	91
416858 (antisense ACGGCATTGGTGCACAGTTT; 5-10-5 gapmer, further chemistry not given here) [compound 416858]	33	0	28	54	82	+1%	+7%	−2	−18	+1%	+8%	−10	+10%	+28%	90
416825 (antisense GCCCTTCATGTCTAGGTCCA; 5-10-5 gapmer, further chemistry not given here) [compound 416825]	20	23	52	73	92	−12%	+5%	−12	−12	+22%	+19%	−11	+13%	+21%	90
416864 (antisense GGCAGCGGACGGCATTGGTG; 5-10-5 gapmer, further chemistry not given here) [compound 416864]	26	18	43	62	78	−4%	−2%	−10	−9	+2%	−2%	−15	−5%	−6%	88
